Active and inactive are the calls of the source. The rule behind the calls is not given here.
What was measured:
AGS [1] = test: Antiproliferative activity against human AGS cells assessed as reduction in cell viability incubated for 72 hrs by CCK-8 assay; format: functional, cell-based
MGC-803 [2] = test: Antiproliferative activity against human MGC-803 cells assessed as reduction in cell viability measured after 72 hrs by CCK-8 assay; format: functional, cell-based; conditions: MGC-803, 72 h
[3] = target: T1, Signal transducer and activator of transcription 3 (Homo sapiens, UniProt P40763); test: Binding affinity to full length wild type STAT3-SH2 domain (unknown origin) assessed as association constant by SPR analysis
T1 sequence (P40763 whole entry, the tested form may be a part): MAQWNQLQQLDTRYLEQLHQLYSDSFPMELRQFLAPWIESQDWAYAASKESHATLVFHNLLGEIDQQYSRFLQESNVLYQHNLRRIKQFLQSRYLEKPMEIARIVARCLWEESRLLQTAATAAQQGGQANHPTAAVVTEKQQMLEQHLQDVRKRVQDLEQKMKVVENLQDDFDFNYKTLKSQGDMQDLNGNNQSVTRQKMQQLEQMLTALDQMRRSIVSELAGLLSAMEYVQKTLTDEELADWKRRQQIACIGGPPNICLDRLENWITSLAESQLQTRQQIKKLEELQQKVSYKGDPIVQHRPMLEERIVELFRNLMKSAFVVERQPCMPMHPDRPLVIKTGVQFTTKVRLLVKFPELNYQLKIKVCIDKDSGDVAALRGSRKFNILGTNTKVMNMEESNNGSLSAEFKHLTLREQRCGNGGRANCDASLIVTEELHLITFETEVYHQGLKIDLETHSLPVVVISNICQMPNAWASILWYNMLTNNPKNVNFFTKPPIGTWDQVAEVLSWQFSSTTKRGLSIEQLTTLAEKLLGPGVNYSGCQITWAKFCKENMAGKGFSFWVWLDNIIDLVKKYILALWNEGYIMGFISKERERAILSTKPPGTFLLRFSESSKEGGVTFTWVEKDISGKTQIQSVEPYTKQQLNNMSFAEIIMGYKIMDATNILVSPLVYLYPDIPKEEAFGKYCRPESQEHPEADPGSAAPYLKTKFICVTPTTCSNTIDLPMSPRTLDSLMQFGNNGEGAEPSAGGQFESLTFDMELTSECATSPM

[4] = target: T1, Signal transducer and activator of transcription 3; test: Binding affinity to full length wild type STAT3-SH2 domain (unknown origin) in human MGC-803 cells assessed as thermal stabilization of protein at 37 to 53 degreeC at 5 uM incubated for 3 hrs by cellular thermal shift assay; format: cell-based
[5] = target: T1, Signal transducer and activator of transcription 3; test: Inhibition of STAT3 transcriptional activity transfected in HEK293T cells at 3 to 5 uM incubated for 24 hrs by dual-ludferase reporter gene assay; format: cell-based; conditions: dose 3-5 µM
[6] = Antiproliferative activity against […] H9c2 cells assessed as reduction in cell viability incubated for 72 hrs by CCK-8 assay; format: toxicity, cell-based; conditions: rat
AGS [7] = test: Induction of apoptosis in human AGS cells at 3 uM incubated for 72 hrs by V-FITC/PI staining based flow cytometry assay; format: functional
MGC-803 [8] = test: Induction of apoptosis in human MGC-803 cells at 5 uM incubated for 72 hrs by V-FITC/PI staining based flow cytometry assay; format: functional
MGC-803 [9] = test: Antitumor activity against human MGC-803 cells xenografted in BALB/c nude mouse assessed as tumor growth inhibition at 15 mg/kg, ip measured every day for 20 days; format: functional; parameters: scale not given: the % may be the effect or the level left; conditions: time 20 day
[10] = Toxicity in BALB/c nude mouse xenografted with MGC-803 cells assessed as effect on body weight at 15 mg/kg, ip measured every day for 20 days; format: organism-based; conditions: in vivo, 480 h, time 20 day
[11] = Toxicity in BALB/c nude mouse xenografted with MGC-803 cells assessed as effect on body weight at 5 mg/kg, ip measured every day for 20 days; format: organism-based; conditions: in vivo, 480 h, time 20 day
MGC-803 [12] = test: Antiproliferative activity against human MGC-803 cells assessed as reduction in cell viability pretreated for 12 hrs followed by compound washout and measured after 24 hrs; format: functional, cell-based

IC50 (AGS [1]) [µM] | IC50 (MGC-803 [2]) [µM] | Ka [3] | Activity [4] | inhibition [5] | Structure (SMILES) | IC50 at 72 h [6] [µM] | Activity (AGS [7]) [%] | Activity (MGC-803 [8]) [%] | Activity (MGC-803 [9]) [%] | Activity [10] | Activity [11] | Activity (MGC-803 [12])
5.42 | 8.51 | 3.02 10^3/M/s | Active | Active | CN(CC(=O)N(Cc1ccc(C2CCCCC2)cc1)c1ccc(C(=O)O)cc1)S(=O)(=O)c1c(F)c(F)c(F)c(F)c1F | 10.2 | 16.2 | 5.7 | 49.05 | Non-Toxic | Non-Toxic | Active
2.57 | 4.71 | – | – | – | C[C@@H](C(=O)N(Cc1ccc(C2CCCCC2)cc1)c1ccc(B(O)O)cc1)N(C)S(=O)(=O)c1c(F)c(F)c(F)c(F)c1F | – | – | – | – | – | – | –
2.78 | 6.07 | – | – | – | O=C([C@H]1CCCN1S(=O)(=O)c1c(F)c(F)c(F)c(F)c1F)N(Cc1ccc(C2CCCCC2)cc1)c1ccc(B(O)O)cc1 | – | – | – | – | – | – | –

— ChEMBL document CHEMBL5214948, “Boronic Acid: A Novel Pharmacophore Targeting Src Homology 2 (SH2) Domain of STAT3” (J Med Chem, 2022)
